Calls of active or inactive are those of the source.
Assays:
Genome polyprotein = Genome polyprotein (Hepatitis C virus, UniProt Q2Q167); assay: disruption of hepatitis C core self-association – biochemical, TR-FRET, dose response (AID 2159); design: species or system Hepacivirus hominis;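 further: blocks dimerization of HCV core protein measured by TR-FRET between tagged core106 pairs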
[1] = target: E3 ubiquitin-protein ligase Mdm2 (Homo sapiens, UniProt Q00987); assay: MDM2-luc reporter signal enhancers, multi-concentration potency testing, MDM2 ubiquitin-protein ligase inhibitor program, whole-cell format, luminescence detection, 384-well microplate (AID 1394); format: functional;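 further: MDM2 E3 inhibitors raise luminescence so EC50 is for signal enhancement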
[2] = target: T1, Hepatocyte nuclear factor 4-alpha (Homo sapiens, UniProt P41235); format: functional, cell-based;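 further: biochemical luminescence-based dose-response counterscreen measuring inhibition of HNF4 dimerization, run alongside a screen for blockers of ABHD5–perilipin-5 interaction; split luciferase complementation of HNF4 fusion proteins in cell lysate measuring dimerization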
T1 sequence (P41235 whole entry): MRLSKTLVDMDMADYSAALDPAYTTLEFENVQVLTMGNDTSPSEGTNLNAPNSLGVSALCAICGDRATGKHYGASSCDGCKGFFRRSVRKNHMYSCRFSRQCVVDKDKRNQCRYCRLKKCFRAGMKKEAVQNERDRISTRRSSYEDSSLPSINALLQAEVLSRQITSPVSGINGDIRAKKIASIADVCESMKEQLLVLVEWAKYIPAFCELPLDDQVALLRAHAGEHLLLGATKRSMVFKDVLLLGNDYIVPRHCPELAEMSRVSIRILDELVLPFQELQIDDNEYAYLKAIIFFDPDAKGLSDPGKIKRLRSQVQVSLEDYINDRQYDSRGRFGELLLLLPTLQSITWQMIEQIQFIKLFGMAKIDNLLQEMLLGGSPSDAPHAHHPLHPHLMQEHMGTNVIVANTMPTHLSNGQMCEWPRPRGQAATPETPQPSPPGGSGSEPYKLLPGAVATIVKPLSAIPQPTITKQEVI

[3] = viability loss in Vero cells – cytotoxicity control for Vif-APOBEC3G degradation inhibitor project, dose response (AID 1117358); format: functional; details: Vero
[4] = HEK-293T cell viability reduction – luminescence, B-cell screen hits, cytotoxicity control for BCR NF-kB inhibitor project, dose response (AID 489021); format: functional, cell-based;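 further: HEK-293T cells carrying an NF-kB luciferase reporter; cells exposed to compound for about 14 hours before viability readout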
[5] = viability of HCT116 lacking mutant beta-catenin – cell-based, human colon tumor, dose response (AID 1045); format: functional;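 further: HCT116 colon tumor cells with beta catenin knocked out; cells exposed to compound for 60 hours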
[6] = viability of PTEN-deleted HCT116 cells – cell-based, HCT116 PTEN knockout, dose response (AID 1047); format: functional;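 further: HCT116 colon tumor cells with PTEN knocked out; cells exposed to compound for 60 hours before readout; potency for loss of cell viability measured by luminescence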
[7] = viability loss of HPDE-C7K cells – cell-based, fluorescence, HTS, primary screen (AID 431); format: functional; details: Homo sapiens
[8] = HPDE-C7 pancreatic duct cell viability loss – fluorescence, HTS (AID 430); format: functional, cell-based; details: Homo sapiens
[9] = Luminescence Cell-Based Dose Confirmation to Identify Activators of 5'UTR Stem-Loop Driven Alpha-Synuclein mRNA Translation in H4 Neuroglioblastoma Cells. [Related pubchem assays: 1829 (Project Summary), 1814 (Primary HTS)]; format: functional
H4 = assay: Luminescence Cell-Based Dose Response HTS to Identify Activators of 5'UTR Stem-Loop Driven Prion Protein mRNA Translation in H4 Neuroglioblastoma Cells. [Related pubchem assays: 1829 (Project Summary), 1814 (Primary HTS)]; format: functional; details: Homo sapiens
[10] = Luminescence Cell-Based Dose Confirmation HTS to Identify Activators of 5'UTR Stem-Loop Driven Alpha-Synuclein mRNA Translation in H4 Neuroglioblastoma Cells. [Related pubchem assays: 1829 (Project Summary), 1814 (Primary HTS)]; format: functional
[11] = Luminescence Cell-Based Dose Response to Identify Activators of 5'UTR Stem-Loop Driven Prion Protein mRNA Translation in H4-C Neuroglioblastoma Cells. [Related pubchem assays: 1829 (Project Summary), 1814 (Primary HTS)]; format: functional
[12] = Luminescence Cell-Based Dose Response HTS to Identify Activators of Luciferase Translation or Activity in H4 […] Cells. [Related pubchem assays: 1829 (Project Summary), 1814 (Primary HTS)]; format: functional
[13] = Luminescence Cell-Based Dose Response to Identify Activators of Luciferase Translation or Activity in H4-C Neuroglioblastoma Cells. [Related pubchem assays: 1829 (Project Summary), 1814 (Primary HTS)]; format: functional
[14] = target: Heat shock protein HSP 90-alpha (Homo sapiens, UniProt P07900); assay: Luminescence-based dose response biochemical high throughput screening assay for inhibitors of the Heat Shock Protein 90 (HSP90). [Related pubchem assays: 1831 (Summary AID.), 1846 (Confirmation screen.), 1789 (Primary screen.)]
HEK293 [15] = assay: cells; format: functional, cell-based; details: Homo sapiens
[16] = target: T2, Nucleotide-binding oligomerization domain-containing protein 1 (Homo sapiens, UniProt Q9Y239); assay: blockers of NOD1 pathway activity – revised, SAR follow-up (AID 2333); format: functional
T2 sequence (Q9Y239 whole entry): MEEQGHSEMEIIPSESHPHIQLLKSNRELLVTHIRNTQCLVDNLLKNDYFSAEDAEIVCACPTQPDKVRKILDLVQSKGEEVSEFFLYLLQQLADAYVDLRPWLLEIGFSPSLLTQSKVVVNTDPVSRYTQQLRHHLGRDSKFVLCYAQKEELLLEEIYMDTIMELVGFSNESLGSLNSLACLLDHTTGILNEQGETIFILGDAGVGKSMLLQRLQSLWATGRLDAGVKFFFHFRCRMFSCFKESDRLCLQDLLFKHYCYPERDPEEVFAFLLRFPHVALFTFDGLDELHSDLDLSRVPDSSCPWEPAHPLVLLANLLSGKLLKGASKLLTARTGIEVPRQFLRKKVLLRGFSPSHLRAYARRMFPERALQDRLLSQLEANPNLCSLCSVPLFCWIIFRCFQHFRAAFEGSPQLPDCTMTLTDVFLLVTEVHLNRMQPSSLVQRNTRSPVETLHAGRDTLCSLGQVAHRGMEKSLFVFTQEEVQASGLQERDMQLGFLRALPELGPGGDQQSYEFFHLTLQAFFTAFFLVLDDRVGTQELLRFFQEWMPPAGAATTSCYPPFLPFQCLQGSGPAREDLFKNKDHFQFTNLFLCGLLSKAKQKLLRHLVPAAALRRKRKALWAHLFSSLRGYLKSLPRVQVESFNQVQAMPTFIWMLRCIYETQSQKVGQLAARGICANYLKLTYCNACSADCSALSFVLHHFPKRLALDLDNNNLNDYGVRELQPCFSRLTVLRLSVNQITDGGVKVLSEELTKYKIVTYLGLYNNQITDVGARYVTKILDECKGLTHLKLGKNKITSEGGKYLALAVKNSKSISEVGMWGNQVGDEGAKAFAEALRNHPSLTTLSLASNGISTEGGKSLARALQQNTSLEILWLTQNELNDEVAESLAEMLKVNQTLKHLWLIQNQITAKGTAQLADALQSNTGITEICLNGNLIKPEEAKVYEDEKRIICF

HEK293 [17] = assay: inhibition of NOD1-driven NF-kB reporter – cell-based, luminescence, uHTS, primary screen (AID 1578); format: functional; details: Homo sapiens
HEK293 [18] = assay: cells; details: Homo sapiens
HEK293 [19] = assay: NOD2 signaling inhibitors in MDP-stimulated cells, cell-based, uHTS, luminescence (AID 2001); format: functional; details: Homo sapiens
HEK293 [20] = assay: cells; format: functional, cell-based; details: Homo sapiens; remark: listed apart in the source
Tumor necrosis factor = Tumor necrosis factor (Homo sapiens, UniProt P01375); assay: analog potency on TNFa NF-kB signaling – cell-based, revised, SAR follow-up (AID 2337); format: functional
ELAV-like protein 1 = ELAV-like protein 1 (Homo sapiens, UniProt Q15717); assay: Identify HuR specific inhibitors.; format: functional
[21] = target: Voltage-dependent T-type calcium channel subunit alpha-1H (Homo sapiens, UniProt O95180); format: functional;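 further: channel activity triggered by adding a high calcium stimulation buffer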
[22] = target: Protein-tyrosine kinase 2-beta (Homo sapiens, UniProt Q14289);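 further: potency of inhibitors of PYK2 kinase phosphorylation of poly-GT substrate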
Chain of Protein-tyrosine kinase 2-beta (Q14289 whole entry): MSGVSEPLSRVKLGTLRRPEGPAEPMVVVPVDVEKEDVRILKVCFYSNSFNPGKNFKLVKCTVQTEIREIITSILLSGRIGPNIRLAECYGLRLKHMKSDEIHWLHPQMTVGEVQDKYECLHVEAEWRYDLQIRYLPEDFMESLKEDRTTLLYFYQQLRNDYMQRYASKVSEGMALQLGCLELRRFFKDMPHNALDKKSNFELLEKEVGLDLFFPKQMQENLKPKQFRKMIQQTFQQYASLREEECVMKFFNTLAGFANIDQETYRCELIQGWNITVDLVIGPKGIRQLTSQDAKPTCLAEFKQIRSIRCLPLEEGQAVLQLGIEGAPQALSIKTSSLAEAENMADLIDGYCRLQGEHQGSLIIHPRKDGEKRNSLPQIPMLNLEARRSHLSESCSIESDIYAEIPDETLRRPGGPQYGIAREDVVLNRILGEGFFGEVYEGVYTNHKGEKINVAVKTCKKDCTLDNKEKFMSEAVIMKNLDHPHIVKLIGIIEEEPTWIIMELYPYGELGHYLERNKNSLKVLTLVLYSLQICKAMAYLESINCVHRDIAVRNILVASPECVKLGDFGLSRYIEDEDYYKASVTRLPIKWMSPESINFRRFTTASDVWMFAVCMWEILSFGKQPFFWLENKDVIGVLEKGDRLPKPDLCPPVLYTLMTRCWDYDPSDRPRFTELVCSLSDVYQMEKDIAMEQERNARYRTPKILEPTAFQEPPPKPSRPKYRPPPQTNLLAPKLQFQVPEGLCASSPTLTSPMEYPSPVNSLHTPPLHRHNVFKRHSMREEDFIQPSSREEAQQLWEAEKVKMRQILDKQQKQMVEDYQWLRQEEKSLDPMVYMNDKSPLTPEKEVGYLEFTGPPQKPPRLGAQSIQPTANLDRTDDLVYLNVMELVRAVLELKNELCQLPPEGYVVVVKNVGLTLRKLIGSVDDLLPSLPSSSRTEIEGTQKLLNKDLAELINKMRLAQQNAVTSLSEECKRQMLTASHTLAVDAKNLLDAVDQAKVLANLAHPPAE

Chain of Voltage-dependent T-type calcium channel subunit alpha-1H (O95180 whole entry): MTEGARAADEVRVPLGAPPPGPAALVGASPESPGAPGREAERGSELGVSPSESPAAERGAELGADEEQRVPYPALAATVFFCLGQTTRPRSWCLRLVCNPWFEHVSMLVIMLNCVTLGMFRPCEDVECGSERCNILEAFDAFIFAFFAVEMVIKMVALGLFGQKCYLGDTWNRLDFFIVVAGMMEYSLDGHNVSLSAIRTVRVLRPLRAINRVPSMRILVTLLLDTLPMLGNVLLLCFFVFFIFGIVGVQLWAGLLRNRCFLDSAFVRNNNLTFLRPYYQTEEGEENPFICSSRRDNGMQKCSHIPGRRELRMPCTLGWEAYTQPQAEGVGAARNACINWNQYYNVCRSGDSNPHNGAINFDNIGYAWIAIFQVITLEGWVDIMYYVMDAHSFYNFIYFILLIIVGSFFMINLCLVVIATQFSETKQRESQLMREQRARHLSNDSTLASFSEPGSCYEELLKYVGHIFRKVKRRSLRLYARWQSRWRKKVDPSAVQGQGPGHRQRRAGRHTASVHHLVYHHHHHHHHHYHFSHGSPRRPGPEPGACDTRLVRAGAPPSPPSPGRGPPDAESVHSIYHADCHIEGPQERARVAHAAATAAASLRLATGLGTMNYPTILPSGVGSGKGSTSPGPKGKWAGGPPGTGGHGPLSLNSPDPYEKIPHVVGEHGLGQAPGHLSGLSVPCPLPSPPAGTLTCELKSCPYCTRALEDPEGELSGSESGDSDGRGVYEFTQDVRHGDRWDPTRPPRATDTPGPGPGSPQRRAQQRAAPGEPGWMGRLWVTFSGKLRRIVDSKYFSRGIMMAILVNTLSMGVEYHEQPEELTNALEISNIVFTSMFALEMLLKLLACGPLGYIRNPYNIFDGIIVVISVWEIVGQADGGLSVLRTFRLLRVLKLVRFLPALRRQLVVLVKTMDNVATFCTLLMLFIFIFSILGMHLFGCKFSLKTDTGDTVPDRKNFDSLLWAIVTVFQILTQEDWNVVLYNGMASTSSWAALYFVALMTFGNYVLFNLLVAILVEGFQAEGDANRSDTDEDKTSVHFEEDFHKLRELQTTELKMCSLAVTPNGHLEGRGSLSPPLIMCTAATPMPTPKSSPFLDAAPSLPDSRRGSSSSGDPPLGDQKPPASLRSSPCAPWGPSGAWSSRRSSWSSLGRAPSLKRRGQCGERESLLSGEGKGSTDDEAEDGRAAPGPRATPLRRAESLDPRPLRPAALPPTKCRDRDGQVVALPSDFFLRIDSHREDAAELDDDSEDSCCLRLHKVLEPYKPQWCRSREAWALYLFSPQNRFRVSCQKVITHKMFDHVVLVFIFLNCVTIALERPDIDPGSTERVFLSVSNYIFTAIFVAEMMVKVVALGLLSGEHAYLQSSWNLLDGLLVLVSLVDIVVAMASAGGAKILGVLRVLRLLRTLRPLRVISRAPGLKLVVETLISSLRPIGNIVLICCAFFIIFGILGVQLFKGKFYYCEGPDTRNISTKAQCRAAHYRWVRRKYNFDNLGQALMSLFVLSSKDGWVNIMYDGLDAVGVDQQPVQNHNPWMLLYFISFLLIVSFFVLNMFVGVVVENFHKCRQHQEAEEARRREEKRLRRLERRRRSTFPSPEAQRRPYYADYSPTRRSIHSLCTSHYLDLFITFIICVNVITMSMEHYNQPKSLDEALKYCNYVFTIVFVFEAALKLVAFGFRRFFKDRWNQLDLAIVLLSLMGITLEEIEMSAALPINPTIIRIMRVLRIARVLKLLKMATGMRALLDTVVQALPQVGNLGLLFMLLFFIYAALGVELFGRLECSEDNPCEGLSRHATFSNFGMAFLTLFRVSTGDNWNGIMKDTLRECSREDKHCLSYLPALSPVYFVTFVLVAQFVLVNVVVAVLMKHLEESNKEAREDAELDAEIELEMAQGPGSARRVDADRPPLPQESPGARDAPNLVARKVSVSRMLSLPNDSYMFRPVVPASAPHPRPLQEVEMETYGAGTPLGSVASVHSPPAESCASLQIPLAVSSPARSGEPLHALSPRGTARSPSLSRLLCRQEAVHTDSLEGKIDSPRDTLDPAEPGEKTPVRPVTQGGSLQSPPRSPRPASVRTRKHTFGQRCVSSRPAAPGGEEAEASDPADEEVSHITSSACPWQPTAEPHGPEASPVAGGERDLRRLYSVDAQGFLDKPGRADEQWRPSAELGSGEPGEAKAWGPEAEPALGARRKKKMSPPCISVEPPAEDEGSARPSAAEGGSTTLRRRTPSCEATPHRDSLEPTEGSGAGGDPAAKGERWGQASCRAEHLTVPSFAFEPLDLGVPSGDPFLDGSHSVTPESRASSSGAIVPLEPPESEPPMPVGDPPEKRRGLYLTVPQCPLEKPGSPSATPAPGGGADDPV
Chain of Tumor necrosis factor (P01375 whole entry): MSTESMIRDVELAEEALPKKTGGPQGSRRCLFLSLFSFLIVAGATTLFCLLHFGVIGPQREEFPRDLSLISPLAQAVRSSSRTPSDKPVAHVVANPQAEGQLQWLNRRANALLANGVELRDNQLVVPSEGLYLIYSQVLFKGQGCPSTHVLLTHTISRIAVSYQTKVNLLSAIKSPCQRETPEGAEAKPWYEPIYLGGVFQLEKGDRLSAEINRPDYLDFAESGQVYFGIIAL
Chain of ELAV-like protein 1 (Q15717 whole entry): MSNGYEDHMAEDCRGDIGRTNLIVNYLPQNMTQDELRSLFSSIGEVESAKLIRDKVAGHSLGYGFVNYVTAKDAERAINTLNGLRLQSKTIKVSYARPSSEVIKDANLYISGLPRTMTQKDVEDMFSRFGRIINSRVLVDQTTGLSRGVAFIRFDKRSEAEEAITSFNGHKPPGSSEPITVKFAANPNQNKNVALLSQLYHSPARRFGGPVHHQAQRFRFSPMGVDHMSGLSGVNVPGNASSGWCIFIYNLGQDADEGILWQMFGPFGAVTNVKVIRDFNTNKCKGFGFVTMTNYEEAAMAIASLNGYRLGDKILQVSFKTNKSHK
Chain of E3 ubiquitin-protein ligase Mdm2 (Q00987 whole entry, the tested form may be a part): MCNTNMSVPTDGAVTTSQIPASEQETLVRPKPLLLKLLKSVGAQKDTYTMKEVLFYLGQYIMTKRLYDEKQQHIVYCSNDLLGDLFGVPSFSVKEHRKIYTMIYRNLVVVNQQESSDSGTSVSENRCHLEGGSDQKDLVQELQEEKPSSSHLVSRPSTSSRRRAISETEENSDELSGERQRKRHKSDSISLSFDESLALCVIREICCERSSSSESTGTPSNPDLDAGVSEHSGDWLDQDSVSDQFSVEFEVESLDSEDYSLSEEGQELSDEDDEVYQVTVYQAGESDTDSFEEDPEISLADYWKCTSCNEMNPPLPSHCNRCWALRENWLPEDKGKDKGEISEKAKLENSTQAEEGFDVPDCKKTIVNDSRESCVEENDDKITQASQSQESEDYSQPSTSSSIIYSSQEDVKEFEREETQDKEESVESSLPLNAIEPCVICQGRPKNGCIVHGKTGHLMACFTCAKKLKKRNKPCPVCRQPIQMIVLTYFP
Chain of Genome polyprotein (Q2Q167 whole entry): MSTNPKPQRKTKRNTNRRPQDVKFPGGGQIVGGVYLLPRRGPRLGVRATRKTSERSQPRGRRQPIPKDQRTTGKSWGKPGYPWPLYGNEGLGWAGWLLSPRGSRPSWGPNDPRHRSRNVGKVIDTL

Cc1cc(C(=O)OCC(=O)c2ccc(Cl)c([N+](=O)[O-])c2)c2cccc(C)c2n1
IC50 (Genome polyprotein): > 49.8 µM (not active)

CCOc1ccc(NC(=O)CN(C)S(=O)(=O)c2c[nH]cn2)cc1
EC50 [1]: 25 µM (not active)

CC1=CC(C)(C)Nc2ccc(OC(=O)c3cccnc3)cc21
IC50 [2]: 3.22 µM (active) | CC50 [3]: 34.4 µM (active) | IC50 [4]: 62.5 µM (inactive) | EC50 [5]: 5.85 µM (active) | EC50 [6]: 7.33 µM (active) | EC50 [7]: 8.23 µM (active) | EC50 [8]: 8.6 µM (active)

Cc1csc(C(C#N)C(=O)c2cc3ccccc3o2)n1 (stereo unspecified)
EC50 [9]: 0.926 µM (active) | EC50 (H4): 3.63 µM (active) | EC50 [10]: < 0.1 µM (active) | EC50 [11]: 1.46 µM (active) | EC50 [12]: 0.387 µM (active) | EC50 [13]: 9.73 µM (active)

CCOC(=O)c1csc(NC(=O)c2ccc(OCC)cc2)n1
IC50 [14]: 0.88 µM (active)

O=C(Nc1cccc([N+](=O)[O-])c1)c1ccc2ccccc2c1O
IC50 (HEK293 [15]): 6.83 µM (active) | IC50 [16]: 4.36 µM (active) | EC50 (HEK293 [17]): 3.05 µM (active) | IC50 (HEK293 [18]): 13.2 µM (active) | IC50 (HEK293 [19]): 6.08 µM (inactive) | IC50 (HEK293 [20]): > 20 µM (inactive) | IC50 (Tumor necrosis factor): 4.72 µM (active) | IC50 (ELAV-like protein 1): 97.4 µM (inactive)

Cc1oc(-c2ccccc2)cc1C(=O)Nc1cccc2ccccc12
EC50 [21]: 18 µM (active) | IC50 [22]: > 69.5 µM (not active)
